From ChEMBL document CHEMBL4840352 (J Med Chem, 2021)
Activity calls are given as the source filed them. The rule behind the calls is not given here.

What was measured:
MV4-11 [1] = assay: Antiproliferative activity against human MV4-11 cells incubated for 48 hrs by CCK-8 assay; format: functional, cell-based; conditions: MV4-11, 48 h
MOLM-13 [2] = assay: Antiproliferative activity against human MOLM-13 cells incubated for 48 hrs by CCK-8 assay; format: functional, cell-based; conditions: MOLM-13, 48 h
[3] = system: Receptor-type tyrosine-protein kinase FLT3 (Homo sapiens), P36888 [UNDEFINED MUTATION]; assay: Induction of FLT3-ITD degradation in human MV4-11 cells at 20 nM pretreated with dov for 2 hrs followed compound addition for 6 hrs by Western blot analysis; format: cell-based
Receptor-type tyrosine-protein kinase FLT3 (Homo sapiens), P36888 [UNDEFINED MUTATION], sequence (P36888 whole entry, looked up, change not shown): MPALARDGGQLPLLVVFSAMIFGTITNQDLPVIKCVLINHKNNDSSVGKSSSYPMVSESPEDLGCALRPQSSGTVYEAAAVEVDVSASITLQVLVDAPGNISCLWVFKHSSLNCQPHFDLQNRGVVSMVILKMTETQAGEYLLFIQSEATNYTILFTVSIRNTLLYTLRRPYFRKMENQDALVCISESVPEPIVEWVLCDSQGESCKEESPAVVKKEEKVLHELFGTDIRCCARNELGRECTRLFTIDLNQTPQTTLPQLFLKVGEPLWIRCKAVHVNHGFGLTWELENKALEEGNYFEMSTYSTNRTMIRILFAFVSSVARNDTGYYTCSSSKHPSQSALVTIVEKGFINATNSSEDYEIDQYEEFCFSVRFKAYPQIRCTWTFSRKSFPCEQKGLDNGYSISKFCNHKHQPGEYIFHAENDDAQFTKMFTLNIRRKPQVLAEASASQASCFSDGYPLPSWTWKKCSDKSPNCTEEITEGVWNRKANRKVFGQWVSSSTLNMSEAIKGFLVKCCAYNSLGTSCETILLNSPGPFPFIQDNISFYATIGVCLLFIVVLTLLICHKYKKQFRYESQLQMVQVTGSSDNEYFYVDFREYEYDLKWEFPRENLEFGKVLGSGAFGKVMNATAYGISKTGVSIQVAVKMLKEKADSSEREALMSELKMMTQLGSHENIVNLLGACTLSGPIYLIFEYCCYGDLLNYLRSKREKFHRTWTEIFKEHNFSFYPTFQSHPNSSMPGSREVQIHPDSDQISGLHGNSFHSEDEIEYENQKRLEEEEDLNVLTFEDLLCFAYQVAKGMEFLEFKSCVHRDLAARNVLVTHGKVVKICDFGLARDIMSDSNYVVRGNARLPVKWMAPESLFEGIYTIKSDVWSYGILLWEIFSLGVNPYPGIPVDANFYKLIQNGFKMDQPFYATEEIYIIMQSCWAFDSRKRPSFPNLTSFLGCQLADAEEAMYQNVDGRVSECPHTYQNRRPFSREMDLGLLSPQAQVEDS

[4] = target: Receptor-type tyrosine-protein kinase FLT3 (Homo sapiens) (UniProt P36888); assay: Inhibition of FLT3 in human MOLM-13 cells assessed as reduction in ERK phosphorylation at 15 nM by Western blot analysis; format: cell-based; conditions: time 0-12 hrs, TDE = time-dependent effect
Receptor-type tyrosine-protein kinase FLT3 (Homo sapiens), sequence (P36888 whole entry): as the sequence (P36888 whole entry, looked up, change not shown) above

[5] = target: Receptor-type tyrosine-protein kinase FLT3 (Homo sapiens) (UniProt P36888); assay: Inhibition of FLT3 in human MV4-11 cells assessed as reduction in AKT phosphorylation at 15 nM by Western blot analysis; format: cell-based; conditions: time 0-12 hrs, TDE = time-dependent effect
MV4-11 [6] = assay: Antitumor activity against human MV4-11 cells xenografted in NOD/SCID mouse assessed as reduction in CD45-positive cells in bone marrow at 3 mg/kg/day, iv administered for 12 days by flow cytometry analysis (reference value: 32.23 %); format: functional; set-up: scale not given: the % may be the effect or the level left; conditions: time 12 day
MOLM-13 [7] = assay: Induction of apoptosis in human MOLM-13 cells assessed as downregulation of Mcl-1 level at 15 nM measured upto 12 hrs by Western blot analysis; format: functional, cell-based; conditions: time hrs <=12
[8] = target: Mast/stem cell growth factor receptor Kit (Homo sapiens) (UniProt P10721); assay: Inhibition of KIT in human MOLM-13 cells assessed as reduction in STAT3 phosphorylation at 5 to 25 nM after 24 hrs by Western blot analysis; format: cell-based; conditions: dose 5-25 nM
Mast/stem cell growth factor receptor Kit (Homo sapiens), sequence (P10721 whole entry): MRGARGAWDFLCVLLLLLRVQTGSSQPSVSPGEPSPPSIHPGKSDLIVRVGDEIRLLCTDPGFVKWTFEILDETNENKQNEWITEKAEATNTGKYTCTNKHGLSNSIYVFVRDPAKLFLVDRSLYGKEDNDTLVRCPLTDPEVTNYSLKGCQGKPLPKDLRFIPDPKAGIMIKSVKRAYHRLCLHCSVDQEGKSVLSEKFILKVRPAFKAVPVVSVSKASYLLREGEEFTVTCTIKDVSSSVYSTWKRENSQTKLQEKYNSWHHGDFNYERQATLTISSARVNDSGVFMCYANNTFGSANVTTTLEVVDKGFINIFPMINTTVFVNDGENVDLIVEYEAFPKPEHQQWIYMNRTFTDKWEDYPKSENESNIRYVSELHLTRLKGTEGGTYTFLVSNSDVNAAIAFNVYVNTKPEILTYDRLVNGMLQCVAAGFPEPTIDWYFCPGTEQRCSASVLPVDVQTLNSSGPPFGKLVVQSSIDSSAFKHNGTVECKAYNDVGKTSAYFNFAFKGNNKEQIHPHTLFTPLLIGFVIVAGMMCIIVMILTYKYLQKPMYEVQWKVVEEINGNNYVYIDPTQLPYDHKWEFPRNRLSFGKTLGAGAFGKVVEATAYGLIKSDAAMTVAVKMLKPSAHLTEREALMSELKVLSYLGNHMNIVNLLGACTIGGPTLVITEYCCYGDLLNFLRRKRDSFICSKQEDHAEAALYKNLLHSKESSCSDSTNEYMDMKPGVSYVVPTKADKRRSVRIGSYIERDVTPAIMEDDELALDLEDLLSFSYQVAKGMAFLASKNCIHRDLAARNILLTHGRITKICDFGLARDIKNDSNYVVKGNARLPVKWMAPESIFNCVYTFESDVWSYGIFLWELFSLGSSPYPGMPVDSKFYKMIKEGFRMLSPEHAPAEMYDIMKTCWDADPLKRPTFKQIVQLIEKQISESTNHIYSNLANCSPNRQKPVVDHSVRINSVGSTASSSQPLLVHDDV

[9] = system: Receptor-type tyrosine-protein kinase FLT3 (Homo sapiens), P36888 [UNDEFINED MUTATION]; assay: Induction of FLT3-ITD degradation in human MV4-11 cells assessed as accumulation of ubiquitinated FLT3-ITD at 15 nM preincubated for 4 hrs followed by MG132 addition for 2 hrs by immunoprecipitation assay; format: cell-based; conditions: time 6.0 hrs
[10] = target: Receptor-type tyrosine-protein kinase FLT3 (Homo sapiens) (UniProt P36888); assay: Inhibition of FLT3 in human MOLM-13 cells assessed as reduction in FLT3 phosphorylation at 15 nM by Western blot analysis; format: cell-based; conditions: time 0-12 hrs, TDE = time-dependent effect
[11] = target: Platelet-derived growth factor receptor beta (Homo sapiens) (UniProt P09619); assay: Induction of PDGFR degradation in human MV4-11 cells at 0 to 25 nM after 24 hrs by Western blot analysis; format: cell-based; conditions: dose 0-25 nM
Platelet-derived growth factor receptor beta (Homo sapiens), sequence (P09619 whole entry): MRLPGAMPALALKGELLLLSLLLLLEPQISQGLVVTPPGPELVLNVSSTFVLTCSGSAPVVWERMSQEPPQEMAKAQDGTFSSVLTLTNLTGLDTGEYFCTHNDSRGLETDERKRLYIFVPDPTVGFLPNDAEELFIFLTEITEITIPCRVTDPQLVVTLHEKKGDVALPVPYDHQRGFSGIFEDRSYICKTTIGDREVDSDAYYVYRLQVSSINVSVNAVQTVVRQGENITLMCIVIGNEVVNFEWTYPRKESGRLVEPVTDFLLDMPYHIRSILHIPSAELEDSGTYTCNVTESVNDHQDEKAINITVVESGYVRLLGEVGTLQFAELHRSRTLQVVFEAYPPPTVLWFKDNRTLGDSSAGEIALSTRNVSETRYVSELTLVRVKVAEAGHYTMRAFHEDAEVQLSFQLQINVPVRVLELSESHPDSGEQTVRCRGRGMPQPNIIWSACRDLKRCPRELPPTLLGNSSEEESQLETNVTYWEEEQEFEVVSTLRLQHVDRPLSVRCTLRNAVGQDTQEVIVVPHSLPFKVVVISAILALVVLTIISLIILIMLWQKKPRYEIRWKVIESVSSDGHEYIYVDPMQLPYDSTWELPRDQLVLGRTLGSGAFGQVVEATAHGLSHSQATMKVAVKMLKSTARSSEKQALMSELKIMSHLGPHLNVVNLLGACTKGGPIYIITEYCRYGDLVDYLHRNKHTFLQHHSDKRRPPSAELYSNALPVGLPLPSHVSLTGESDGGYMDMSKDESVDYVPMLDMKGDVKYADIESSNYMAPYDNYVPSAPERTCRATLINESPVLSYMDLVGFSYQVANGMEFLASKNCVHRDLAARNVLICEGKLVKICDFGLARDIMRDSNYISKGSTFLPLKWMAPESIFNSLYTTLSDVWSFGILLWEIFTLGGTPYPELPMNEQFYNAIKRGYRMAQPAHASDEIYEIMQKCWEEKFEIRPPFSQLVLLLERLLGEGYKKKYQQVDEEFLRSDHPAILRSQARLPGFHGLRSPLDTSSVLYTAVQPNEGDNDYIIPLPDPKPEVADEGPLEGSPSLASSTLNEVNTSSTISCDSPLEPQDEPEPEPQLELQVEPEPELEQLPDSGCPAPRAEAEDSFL

MOLM-13 [12] = assay: Induction of apoptosis in human MOLM-13 cells assessed as upregulation of cleaved caspase-3 level at 15 nM by Western blot analysis; format: functional, cell-based; conditions: time 0-12 hrs, TDE = time-dependent effect
[13] = system: Receptor-type tyrosine-protein kinase FLT3 (Homo sapiens), P36888 [UNDEFINED MUTATION]; assay: Induction of FLT3-ITD degradation in human MV4-11 cells after 24 hrs by Western blot analysis; format: cell-based
[14] = target: Mast/stem cell growth factor receptor Kit (Homo sapiens) (UniProt P10721); assay: Induction of KIT degradation in human MOLM-13 cells at 0 to 25 nM after 24 hrs by Western blot analysis; format: cell-based; conditions: dose 0-25 nM
MV4-11 [15] = assay: Reduction in intracellular ROS level in human MV4-11 cells measured after 12 hrs by DCFH-DA probe based flow cytometry; format: functional, cell-based; conditions: dose 25-200 nM
[16] = target: Receptor-type tyrosine-protein kinase FLT3 (Homo sapiens) (UniProt P36888); assay: Inhibition of FLT3 in human MV4-11 cells assessed as reduction in STAT5 phosphorylation at 15 nM by Western blot analysis; format: cell-based; conditions: time 0-12 hrs, TDE = time-dependent effect
[17] = target: Receptor-type tyrosine-protein kinase FLT3 (Homo sapiens) (UniProt P36888); assay: Inhibition of FLT3 in human MV4-11 cells assessed as reduction in ERK phosphorylation at 15 nM by Western blot analysis; format: cell-based; conditions: time 0-12 hrs, TDE = time-dependent effect
[18] = target: Receptor-type tyrosine-protein kinase FLT3 (Homo sapiens) (UniProt P36888); assay: Inhibition of FLT3 in human MOLM-13 cells assessed as reduction in STAT5 phosphorylation at 15 nM by Western blot analysis; format: cell-based; conditions: time 0-12 hrs, TDE = time-dependent effect
[19] = target: Mast/stem cell growth factor receptor Kit (Homo sapiens) (UniProt P10721); assay: Inhibition of KIT in human MOLM-13 cells assessed as reduction in PI3K phosphorylation at 5 to 25 nM after 24 hrs by Western blot analysis; format: cell-based; conditions: dose 5-25 nM
[20] = target: Mast/stem cell growth factor receptor Kit (Homo sapiens) (UniProt P10721); assay: Induction of KIT degradation in human MV4-11 cells at 0 to 25 nM after 24 hrs by Western blot analysis; format: cell-based; conditions: dose 0-25 nM
MV4-11 [21] = assay: Induction of apoptosis in human MV4-11 cells assessed as downregulation of Mcl-1 level at 15 nM measured upto 12 hrs by Western blot analysis; format: functional, cell-based; conditions: time hrs <=12
MV4-11 [22] = assay: Induction of apoptosis in human MV4-11 cells assessed as upregulation of cleaved caspase-3 level at 15 nM by Western blot analysis; format: functional, cell-based; conditions: time 0-12 hrs, TDE = time-dependent effect
[23] = target: Receptor-type tyrosine-protein kinase FLT3 (Homo sapiens) (UniProt P36888); assay: Inhibition of FLT3 in human MOLM-13 cells assessed as reduction in AKT phosphorylation at 15 nM by Western blot analysis; format: cell-based; conditions: time 0-12 hrs, TDE = time-dependent effect
[24] = system: Receptor-type tyrosine-protein kinase FLT3 (Homo sapiens), P36888 [UNDEFINED MUTATION]; assay: Induction of FLT3-ITD degradation in human MV4-11 cells at 20 nM pretreated with MG132 for 2 hrs followed compound addition for 6 hrs by Western blot analysis; format: cell-based
[25] = target: Mast/stem cell growth factor receptor Kit (Homo sapiens) (UniProt P10721); assay: Inhibition of KIT in human MV4-11 cells assessed as reduction in STAT3 phosphorylation at 5 to 25 nM after 24 hrs by Western blot analysis; format: cell-based; conditions: dose 5-25 nM
[26] = target: Mast/stem cell growth factor receptor Kit (Homo sapiens) (UniProt P10721); assay: Inhibition of KIT in human MV4-11 cells assessed as reduction in PI3K phosphorylation at 5 to 25 nM after 24 hrs by Western blot analysis; format: cell-based; conditions: dose 5-25 nM
[27] = system: Receptor-type tyrosine-protein kinase FLT3 (Homo sapiens), P36888 [UNDEFINED MUTATION]; assay: Induction of FLT3-ITD degradation in human MV4-11 cells at 20 nM pretreated with pomalidomide for 2 hrs followed compound addition for 6 hrs by Western blot analysis; format: cell-based
MOLM-13 [28] = assay: Induction of apoptosis in human MOLM-13 cells after 48 hrs by Annexin-V/PI staining based flow cytometry; format: functional, cell-based; conditions: dose 1.25-10 nM
MOLM-13 [29] = assay: Induction of apoptosis in human MOLM-13 cells assessed as downregulation of Bcl-2 level at 15 nM measured upto 12 hrs by Western blot analysis; format: functional, cell-based; conditions: time hrs <=12
[30] = system: Receptor-type tyrosine-protein kinase FLT3 (Homo sapiens), P36888 [UNDEFINED MUTATION]; assay: Induction of FLT3-ITD degradation in human MOLM-13 cells after 24 hrs by Western blot analysis; format: cell-based
MOLM-13 [31] = assay: Reduction in intracellular ROS level in human MOLM-13 cells measured after 12 hrs by DCFH-DA probe based flow cytometry; format: functional, cell-based; conditions: dose 25-200 nM
[32] = target: Platelet-derived growth factor receptor beta (Homo sapiens) (UniProt P09619); assay: Induction of PDGFR degradation in human MOLM-13 cells at 0 to 25 nM after 24 hrs by Western blot analysis; format: cell-based; conditions: dose 0-25 nM
[33] = target: Receptor-type tyrosine-protein kinase FLT3 (Homo sapiens) (UniProt P36888); assay: Inhibition of FLT3 in human MV4-11 cells assessed as reduction in FLT3 phosphorylation at 15 nM by Western blot analysis; format: cell-based; conditions: time 0-12 hrs, TDE = time-dependent effect
MV4-11 [34] = assay: Induction of apoptosis in human MV4-11 cells after 48 hrs by Annexin-V/PI staining based flow cytometry; format: functional, cell-based; conditions: dose 1.25-10 nM
MV4-11 [35] = assay: Induction of apoptosis in human MV4-11 cells assessed as downregulation of Bcl-2 level at 15 nM measured upto 12 hrs by Western blot analysis; format: functional, cell-based; conditions: time hrs <=12
[36] = Toxicity in NOD/SCID mouse xenografted with human MV4-11 cells assessed as effect on body weight at 3 mg/kg/day, iv administered for 12 hrs; format: organism-based; conditions: in vivo

Compound Cc1ncsc1-c1ccc(CNC(=O)[C@H]2C[C@H](O)CN2C(=O)[C@H](NC(=O)CCCCC(=O)N2CCN(c3ccc4[nH]c(-c5c(N)c6c(F)cccc6[nH]c5=O)nc4c3)CC2)C(C)(C)C)cc1 has an IC50 (MV4-11 [1]) of 415 nM and an IC50 (MOLM-13 [2]) of 185 nM.
Nc1c(-c2nc3cc(N4CCN(CCCC(=O)Nc5cccc6c5C(=O)N(C5CCC(=O)NC5=O)C6=O)CC4)ccc3[nH]2)c(=O)[nH]c2cccc(F)c12 (stereo not given) showed an IC50 (MV4-11 [1]) of 739 nM and an IC50 (MOLM-13 [2]) of 419 nM.
Nc1c(-c2nc3cc(N4CCN(CCCCCCC(=O)Nc5cccc6c5C(=O)N(C5CCC(=O)NC5=O)C6=O)CC4)ccc3[nH]2)c(=O)[nH]c2cccc(F)c12 (stereo not given) showed an IC50 (MV4-11 [1]) of 418 nM and an IC50 (MOLM-13 [2]) of over 1000 nM.
Nc1c(-c2nc3cc(N4CCN(CCCCCC(=O)Nc5cccc6c5C(=O)N(C5CCC(=O)NC5=O)C6=O)CC4)ccc3[nH]2)c(=O)[nH]c2cccc(F)c12 (stereo not given) gave an IC50 (MV4-11 [1]) of 557 nM and an IC50 (MOLM-13 [2]) of over 1000 nM.
For Nc1c(-c2nc3cc(N4CCN(C(=O)CCCCNc5cccc6c5C(=O)N(C5CCC(=O)NC5=O)C6=O)CC4)ccc3[nH]2)c(=O)[nH]c2cccc(F)c12 (stereo not given), the Activity [3] was “inactive”, the inhibition [4] was “Tde” and the inhibition [5] was “Tde”. The Activity (MV4-11 [6]) was 5.25%, the Activity (MOLM-13 [7]) was “Active” and the inhibition [8] was “Active”. The Activity [9] was “Active”, the inhibition [10] was “Tde” and the Activity [11] was “Active”. For the same compound, the Activity (MOLM-13 [12]) was “Tde”, the Activity [13] was “Dose-Dependent Effect” and the Activity [14] was “Active”. For the same compound, the Activity (MV4-11 [15]) was “Dose-Dependent Effect”, the inhibition [16] was “Tde” and the inhibition [17] was “Tde”. The IC50 (MV4-11 [1]) was 18.7 nM, the inhibition [18] was “Tde” and the inhibition [19] was “Active”. For the same compound, the Activity [20] was “Active”, the Activity (MV4-11 [21]) was “Active” and the Activity (MV4-11 [22]) was “Tde”. For the same compound, the inhibition [23] was “Tde”, the Activity [24] was “inactive” and the inhibition [25] was “Active”. For the same compound, the inhibition [26] was “Active”, the Activity [27] was “inactive” and the Activity (MOLM-13 [28]) was “Dose-Dependent Effect”. For the same compound, the Activity (MOLM-13 [29]) was “Active”, the Activity [30] was “Dose-Dependent Effect” and the Activity (MOLM-13 [31]) was “Dose-Dependent Effect”. For the same compound, the Activity [32] was “Active”, the inhibition [33] was “Tde” and the Activity (MV4-11 [34]) was “Dose-Dependent Effect”. For the same compound, the Activity (MV4-11 [35]) was “Active”, the Activity [36] was “Non-Toxic” and the IC50 (MOLM-13 [2]) was 10.1 nM.
Compound Nc1c(-c2nc3cc(N4CCN(CCC(=O)Nc5cccc6c5C(=O)N(C5CCC(=O)NC5=O)C6=O)CC4)ccc3[nH]2)c(=O)[nH]c2cccc(F)c12 (stereo not given) has an IC50 (MV4-11 [1]) of over 1000 nM and an IC50 (MOLM-13 [2]) of over 1000 nM.
With Nc1c(-c2nc3cc(N4CCN(CCCCCCC(=O)Nc5cccc6c5CN(C5CCC(=O)NC5=O)C6=O)CC4)ccc3[nH]2)c(=O)[nH]c2cccc(F)c12 (stereo not given) the IC50 (MV4-11 [1]) was over 1000 nM and the IC50 (MOLM-13 [2]) was over 1000 nM.
Nc1c(-c2nc3cc(N4CCN(C(=O)CCCCCCNc5cccc6c5C(=O)N(C5CCC(=O)NC5=O)C6=O)CC4)ccc3[nH]2)c(=O)[nH]c2cccc(F)c12 (stereo not given) gave an IC50 (MV4-11 [1]) of 416 nM and an IC50 (MOLM-13 [2]) of 130 nM.
